The text below walks through data of patent publication US8455528B2, “Imidazole derivatives useful as inhibitors of FAAH” (Merck Sharp & Dohme Corp., priority 2008, dated 2013).

The test has as its target T1, Human FAAH (Homo sapiens, UniProt O00519).
T1 construct: The full length FAAH was subcloned into the mammalian expression vector, pcDEF.neo; expressed in transfected cells
T1 sequence (O00519 1-579): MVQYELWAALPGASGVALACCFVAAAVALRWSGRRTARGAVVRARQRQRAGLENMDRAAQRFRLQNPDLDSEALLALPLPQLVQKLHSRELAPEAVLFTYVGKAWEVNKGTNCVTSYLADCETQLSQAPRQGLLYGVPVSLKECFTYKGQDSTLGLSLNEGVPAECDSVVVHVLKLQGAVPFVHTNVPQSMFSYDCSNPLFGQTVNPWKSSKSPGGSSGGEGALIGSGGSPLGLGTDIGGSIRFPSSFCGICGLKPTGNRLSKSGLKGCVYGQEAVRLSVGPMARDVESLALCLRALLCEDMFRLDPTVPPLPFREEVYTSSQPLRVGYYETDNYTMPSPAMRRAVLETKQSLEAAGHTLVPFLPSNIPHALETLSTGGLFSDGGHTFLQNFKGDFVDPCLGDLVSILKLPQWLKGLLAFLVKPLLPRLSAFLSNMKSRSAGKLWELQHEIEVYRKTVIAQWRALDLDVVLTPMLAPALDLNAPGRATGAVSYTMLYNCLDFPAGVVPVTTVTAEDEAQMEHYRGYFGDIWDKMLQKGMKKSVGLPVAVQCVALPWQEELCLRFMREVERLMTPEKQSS
The test is described as follows: Human FAAH lysate assay (CHO cell lysate, AAMCA fluorescent substrate). It is filed as biochemical. The settings on record: FAAH inhibition, CHO cell lysate expressing human FAAH; read-out: Human Lysate. The text has this:
To assist in assay development stable cell lines for human, murine and rat full length FAAH were developed. Human FAAH cDNA (Accession No: NM-001441.1) was purchased from Origene (Rockville, Md.). The full length FAAH was subcloned into the mammalian expression vector, pcDEF.neo, using XbaI and EcoRI restriction sites and used for stable cell line generation. CHO cells expressing FAAH were used to prepare either crude cell lysate or microsome fractions. To harvest cells, tissue culture media was decanted, the monolayer washed three times with Ca^++Mg^++ free PBS and cells recovered after 15 min in enzyme free dissociation media (Millipore Corp, Billerica, Mass.). Cells were collected by centrifuging at 2000 rpm for 15 min. and the cell pellet re-suspended with 50 mM HEPES (pH 7.4) containing 1 mM EDTA and the protease inhibitors aprotinin (1 mg/ml) and leupeptin (100 μM). […] The pellet containing FAAH-enriched microsomes was re-suspend in 50 mM HEPES, (pH 7,4) 1 mM EDTA, and any remaining DNA sheared by passage of material through a 23 gauge needle and aliquots of enzyme were store at -80° C. prior to use. […] (American Radiolabeled Chemicals; 1 mCi/ml) with FAAH (Life Sciences (1995), 56, 1999-2005 and Journal of Pharmacology and Experimented Therapeutics (1997), 283, 729-734), Analytical. Biochemistry (2003), 318, 270-5. […] Analytical. Biochemistry (2005). 343, 143-51 […] Fluorescent release as a measure of FAAH activity was monitored by reading the plate in a CytoFluor Multiplate Reader ([…]). Whole cell assay is conducted with cells harvested after rinsing tissue culture flasks three times with Ca^++Mg^++ free PBS, incubating for 10 min in Enzyme free dissociation media and centrifuging for 5 minutes at 1,000 rpm in table top centrifuge. Cells are resuspended in assay buffer at desired cell number in (4×10^4 cells/assay in 96-well format; 1×10^4 cells/assay in 384-well format) and assayed as described. […] The reaction was terminated by addition of 2 volumes of chloroform:methanol (1:1) and mixed by vortexing. […] K., et al. A fluorescence-based assay for fatty acid amide hydrolase compatible with high-throughput screening. Anal. Biochem. 343:143-51 (2005) • Wilson S. J., et l. A high-throughput-compatible assay for determining the activity of fatty acid amide hydrolase. Anal Biochem. 318:270-5 (2003).
In the case of `Cn1c(-c2ccccc2)nc(-c2ccc(C#N)cc2)c1Sc1ccc(Cl)cc1` [Ex 2, 4-{5-[(4-Chlorophenyl)thio]-1-methyl-2-phenyl-1H-imidazol-4-yl}benzonitrile], the IC50 is 0.0212 µM. As to `CS(=O)(=O)c1ccc(-c2nc(C3CCC3)[nH]c2Sc2ccc(Cl)cc2)cc1` [Ex 13], the IC50 is 0.946 µM.

As for `Cn1c(C2CCC2)nc(-c2ccc(S(C)(=O)=O)cc2)c1Sc1ccc(Cl)cc1` [Ex 14], the IC50 came to 0.0265 µM. With `CC(C)c1nc(-c2ccc(S(C)(=O)=O)cc2)c(Sc2ccc(Cl)cc2)n1C` [Ex 29, 5-[(4-Chlorophenyl)thio]-2-isopropyl-1-methyl-4-[4-(methylsulfonyl)phenyl]-1H-imidazole], the IC50 came out at 0.0744 µM. The result for `Cn1cnc(-c2ccc(C#N)cc2)c1Sc1ccc(Cl)cc1` [Ex 33, 4-{5-[(4-chlorophenyl)thio]-1-methyl-1H-imidazol-4-yl}benzonitrile] reads 0.363 µM. Then `Cn1c(-c2ccccn2)nc(-c2ccc(-c3nnco3)cc2)c1Sc1ccc(Cl)cn1` [Ex 36, 5-Chloro-2-({1-methyl-4-[4-(1,3,4-oxadiazol-2-yl)phenyl]-2-pyridin-2-yl-1H-imidazol-5-yl}thio)pyridine], with 0.0269 µM; and `Cn1c(-c2ccccn2)nc(-c2ccc(C(O)C(F)F)cc2)c1Sc1ccc(Cl)cc1` (stereo not drawn) [Ex 57, 1-(4-{5-[(4-Chlorophenyl)thio]-1-methyl-2-pyridin-2-yl-1H-imidazol-4-yl}phenyl)-2,2-difluoroethanol], with 0.0214 µM. Turning to `Cn1c(-c2ccccn2)nc(-c2ccc(-n3ccnn3)cc2)c1Sc1ccc(Cl)cc1` [Ex 66], the IC50 was found to be 0.0166 µM.

Take `Cn1c(-c2ccccn2)nc(-c2ccc(N)cc2)c1Sc1ccc(Cl)cc1` [Ex 98, 4-{5-[(4-Chlorophenyl)thio]-1-methyl-2-pyridin-2-yl-1H-imidazol-4-yl}aniline]: the IC50 was 0.0337 µM.
